{"source": "paper PMC7360964", "about": "“Auto‐inhibition of Mif2/CENP‐C ensures centromere‐dependent kinetochore assembly in budding yeast” (The EMBO Journal, 2020)", "molecular_target": "T1, MN (Saccharomyces cerevisiae, UniProt P39731+P47149)", "T1 construct": "made in house; host or cells: E. coli BL21 (DE3)", "T1 sequence (P39731 1-289)": "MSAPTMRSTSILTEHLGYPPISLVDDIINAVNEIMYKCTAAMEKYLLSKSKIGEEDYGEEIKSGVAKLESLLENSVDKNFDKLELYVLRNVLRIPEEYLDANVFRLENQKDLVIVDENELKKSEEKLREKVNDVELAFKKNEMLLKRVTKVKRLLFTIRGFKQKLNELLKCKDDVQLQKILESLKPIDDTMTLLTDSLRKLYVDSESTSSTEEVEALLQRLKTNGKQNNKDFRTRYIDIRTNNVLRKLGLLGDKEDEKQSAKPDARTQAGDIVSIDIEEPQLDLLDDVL", "T1 sequence (P47149 1-201)": "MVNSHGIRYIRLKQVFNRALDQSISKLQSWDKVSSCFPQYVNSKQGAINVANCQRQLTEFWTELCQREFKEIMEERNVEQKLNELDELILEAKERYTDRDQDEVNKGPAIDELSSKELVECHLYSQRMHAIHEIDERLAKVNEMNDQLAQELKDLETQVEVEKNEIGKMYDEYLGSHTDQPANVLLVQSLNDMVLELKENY", "assay": "Isothermal titration calorimetry (ITC) with MN", "type": "binding, budding yeast (S. cerevisiae)", "settings": "summary of FP and ITC assays", "text": "Figure 5 The Mif2 N‐terminus is prevented from high‐affinity Mtw1c binding in the full‐length molecule • Co‐purification of Strep‐Mtw1c through Flag‐Mif2 after co‐expression in insect cells. Proteins were detected by Western blotting using their respective tags. • Western blotting of elution fractions from an SEC experiment of Mif2‐wt or Mif2^Ame1‐N swap in the absence (upper panel) or presence (lower panel) of Mtw1c. • ITC analysis of Mif2^1‐41 or Ame1^1‐20 binding to MN. Experiments were performed 3 or 4 times, respectively. One representative binding curve is shown, whereas the KD value represents the average of all experiments. • Cross‐link (XL) MS analysis of the Mif2wt protein in isolation or bound to Cse4n using the cross‐linker Bis[sulfosuccinimidyl] glutarate. Mif2wt alone or in combination with Cse4n was subjected to analytical size‐exclusion chromatography at 10 μM concentration. The corresponding Coomassie‐stained SDS–PAGE gels of Mif2‐wt alone or in combination with Cse4n are shown. Fractions used for cross‐linking are highlighted. […]\nThe binding constant of Ame1 could only be indirectly measured in the FP competition assay, as labeling of Ame1 N‐terminal peptides rendered them insoluble. We therefore directly determined binding affinities of Mif2 and Ame1 N‐terminal peptides to MN using isothermal titration calorimetry (ITC). […]", "note": "Where no end group is shown, it is not given here."}
{"sequence": "MDYMKLGLKSRKTGIDVKQDIPKDEYSMENIDDFFKDDETS [Mif2^1‐41]", "values": [{"measurement": "dissociation constants for Mtw1 constructs", "value": "low micromolar range"}]}
